Measurements from ChEMBL document CHEMBL5550190 (J Med Chem, 2024).

How the values were obtained:
[1] = Drug metabolism in mouse liver microsomes assessed as M1 metabolite formation at 10 uM after 30 mins in presence of NADPH by LC-MS/MS analysis; assay type: ADME, Microsome; details: 0.5 h
[2] = Drug metabolism in mouse liver microsomes assessed as M3 metabolite formation at 10 uM after 30 mins in presence of NADPH by LC-MS/MS analysis; assay type: ADME, Microsome; details: 0.5 h
[3] = Metabolic stability in mouse liver microsomes assessed as half life at 100 uM preincubated for 5 mins followed by NADPH addition and measured upto 60 mins by LC-MS/MS analysis; assay type: ADME, Microsome; details: time < 65 min
CYP3A4 = CYP3A4 (Homo sapiens, UniProt P08684); assay: Drug metabolism in human liver microsomes assessed as CYP3A4-mediated metabolism by measuring increase in half life in presence of ketoconazole (reference value: 10.8 mins); assay type: ADME, Microsome; details: with ketoconazole
HCT-116 = assay: Antitumor activity against human HCT-116 cells incubated for 48 hrs; assay type: functional
[4] = Metabolic stability in human liver microsomes assessed as half life at 100 uM measured upto 60 mins by LC-MS/MS analysis; assay type: ADME, Microsome; details: 1 h
[5] = Metabolic stability in mouse liver microsomes assessed as half life at 100 uM measured upto 60 mins by LC-MS/MS analysis; assay type: ADME, Microsome; details: 1 h
MDA-MB-231 [6] = assay: Antitumor activity against human MDA-MB-231 cells incubated for 48 hrs in presence of 1.5% BSA by Celltiter Blue reagent based 2D microtiter assay; assay type: functional
[7] = Protein binding in mouse plasma at 5 uM incubated for 5 hrs by LC-MS/MS analysis; assay type: ADME, cell-free; details: read-out: PPB
[8] = Drug metabolism in mouse liver microsomes assessed as M2 metabolite formation at 10 uM after 30 mins in presence of NADPH by LC-MS/MS analysis; assay type: ADME, Microsome; details: 0.5 h
MDA-MB-231 [9] = assay: Antitumor activity against human MDA-MB-231 cells incubated for 48 hrs in presence of 1.5% BSA by Celltiter Blue reagent based 3D microtiter assay; assay type: functional
MDA-MB-231 [10] = assay: Antitumor activity against human MDA-MB-231 cells incubated for 48 hrs by Celltiter Blue reagent based 2D microtiter assay; assay type: functional
[11] = Metabolic stability in human liver microsomes assessed as half life at 100 uM preincubated for 5 mins followed by NADPH addition and measured upto 60 mins by LC-MS/MS analysis; assay type: ADME, Microsome; details: time < 65 min
CYP1A2 = target: T1, CYP1A2 (Homo sapiens, UniProt P05177); assay: Drug metabolism in human liver microsomes assessed as CYP1A2-mediated metabolism by measuring increase in half life in presence of furafylline (reference value: 10.8 mins); assay type: ADME, Microsome; details: with furafylline
T1 sequence (P05177 whole entry): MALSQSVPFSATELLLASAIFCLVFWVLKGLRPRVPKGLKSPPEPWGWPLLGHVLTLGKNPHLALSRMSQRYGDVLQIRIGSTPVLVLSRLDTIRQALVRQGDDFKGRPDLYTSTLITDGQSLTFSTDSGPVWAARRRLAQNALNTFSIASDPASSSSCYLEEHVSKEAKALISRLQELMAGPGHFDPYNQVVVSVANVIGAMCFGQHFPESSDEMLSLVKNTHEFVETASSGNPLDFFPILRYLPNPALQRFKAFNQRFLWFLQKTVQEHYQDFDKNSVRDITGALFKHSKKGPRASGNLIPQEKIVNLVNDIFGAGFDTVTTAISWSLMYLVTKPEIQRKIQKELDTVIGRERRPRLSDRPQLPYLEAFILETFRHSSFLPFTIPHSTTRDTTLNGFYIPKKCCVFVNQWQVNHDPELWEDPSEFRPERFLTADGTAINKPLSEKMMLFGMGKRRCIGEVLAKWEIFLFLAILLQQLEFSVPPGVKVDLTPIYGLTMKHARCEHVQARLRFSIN

CYP2C9 = CYP2C9 (Homo sapiens, UniProt P11712); assay: Drug metabolism in human liver microsomes assessed as CYP2C9-mediated metabolism by measuring increase in half life in presence of sulfaphenazole (reference value: 10.8 mins); assay type: ADME, Microsome; details: with sulfaphenazole
MDA-MB-231 [12] = assay: Antitumor activity against human MDA-MB-231 cells incubated for 48 hrs by Celltiter Blue reagent based 3D microtiter assay; assay type: functional
CYP2C19 = CYP2C19 (Homo sapiens, UniProt P33261); assay: Drug metabolism in human liver microsomes assessed as CYP2C19-mediated metabolism by measuring increase in half life in presence of (+)-N-3-benzylnirvanol (reference value: 10.8 mins); assay type: ADME, Microsome; details: with (+)-N-3-benzylnirvanol
A549 = assay: Antitumor activity against human A549 cells incubated for 48 hrs; assay type: functional
[13] = Protein binding in human plasma at 5 uM incubated for 5 hrs by LC-MS/MS analysis; assay type: ADME, cell-free; details: read-out: PPB
CYP2D6 = CYP2D6 (Homo sapiens, UniProt P10635); assay: Drug metabolism in human liver microsomes assessed as CYP2D6-mediated metabolism by measuring increase in half life in presence of quinidine (reference value: 10.8 mins); assay type: ADME, Microsome; details: with quinidine
Hs-578T = assay: Antitumor activity against human Hs-578T cells incubated for 48 hrs; assay type: functional

CYP3A4, sequence (P08684 whole entry): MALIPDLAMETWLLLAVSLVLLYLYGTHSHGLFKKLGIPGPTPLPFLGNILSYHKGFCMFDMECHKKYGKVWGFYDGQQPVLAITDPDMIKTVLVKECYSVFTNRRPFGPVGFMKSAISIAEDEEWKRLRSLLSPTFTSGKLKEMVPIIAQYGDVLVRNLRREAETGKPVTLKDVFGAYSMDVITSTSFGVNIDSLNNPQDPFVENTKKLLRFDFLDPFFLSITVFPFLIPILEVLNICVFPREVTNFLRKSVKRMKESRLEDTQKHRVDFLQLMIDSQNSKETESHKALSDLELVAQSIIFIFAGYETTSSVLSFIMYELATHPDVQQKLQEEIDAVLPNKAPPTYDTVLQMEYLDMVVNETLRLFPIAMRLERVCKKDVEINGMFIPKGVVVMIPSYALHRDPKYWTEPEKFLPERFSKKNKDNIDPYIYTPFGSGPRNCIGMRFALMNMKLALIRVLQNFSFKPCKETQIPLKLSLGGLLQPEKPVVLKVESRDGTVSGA
CYP2C9, sequence (P11712 whole entry): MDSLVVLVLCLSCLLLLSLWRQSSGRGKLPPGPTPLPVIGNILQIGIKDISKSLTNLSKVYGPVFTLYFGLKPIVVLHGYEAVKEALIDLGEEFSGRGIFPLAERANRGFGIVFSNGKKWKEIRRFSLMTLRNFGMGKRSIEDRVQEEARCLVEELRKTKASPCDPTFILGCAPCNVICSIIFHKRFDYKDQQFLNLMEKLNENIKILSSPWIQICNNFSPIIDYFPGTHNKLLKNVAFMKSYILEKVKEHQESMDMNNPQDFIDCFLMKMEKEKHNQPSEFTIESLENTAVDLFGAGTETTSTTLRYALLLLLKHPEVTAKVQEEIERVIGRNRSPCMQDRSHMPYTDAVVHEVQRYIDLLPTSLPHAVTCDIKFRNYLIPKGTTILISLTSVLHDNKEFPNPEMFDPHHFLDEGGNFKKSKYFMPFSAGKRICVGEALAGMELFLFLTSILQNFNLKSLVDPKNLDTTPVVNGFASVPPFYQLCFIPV
CYP2D6, sequence (P10635 whole entry): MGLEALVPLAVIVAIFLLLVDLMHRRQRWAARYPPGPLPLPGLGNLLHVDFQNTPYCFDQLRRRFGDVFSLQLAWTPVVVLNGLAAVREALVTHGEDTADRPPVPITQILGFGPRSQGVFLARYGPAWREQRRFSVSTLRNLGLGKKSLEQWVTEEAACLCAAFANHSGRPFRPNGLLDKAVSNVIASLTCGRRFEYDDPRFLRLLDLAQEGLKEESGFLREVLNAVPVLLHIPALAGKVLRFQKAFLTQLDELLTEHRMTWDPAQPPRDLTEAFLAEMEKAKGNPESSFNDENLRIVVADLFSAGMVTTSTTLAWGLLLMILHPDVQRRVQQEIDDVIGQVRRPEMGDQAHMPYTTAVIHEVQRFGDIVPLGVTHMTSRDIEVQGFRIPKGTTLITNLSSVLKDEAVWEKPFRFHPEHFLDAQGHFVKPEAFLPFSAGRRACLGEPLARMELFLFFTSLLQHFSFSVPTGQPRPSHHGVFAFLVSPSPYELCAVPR
CYP2C19, sequence (P33261 whole entry): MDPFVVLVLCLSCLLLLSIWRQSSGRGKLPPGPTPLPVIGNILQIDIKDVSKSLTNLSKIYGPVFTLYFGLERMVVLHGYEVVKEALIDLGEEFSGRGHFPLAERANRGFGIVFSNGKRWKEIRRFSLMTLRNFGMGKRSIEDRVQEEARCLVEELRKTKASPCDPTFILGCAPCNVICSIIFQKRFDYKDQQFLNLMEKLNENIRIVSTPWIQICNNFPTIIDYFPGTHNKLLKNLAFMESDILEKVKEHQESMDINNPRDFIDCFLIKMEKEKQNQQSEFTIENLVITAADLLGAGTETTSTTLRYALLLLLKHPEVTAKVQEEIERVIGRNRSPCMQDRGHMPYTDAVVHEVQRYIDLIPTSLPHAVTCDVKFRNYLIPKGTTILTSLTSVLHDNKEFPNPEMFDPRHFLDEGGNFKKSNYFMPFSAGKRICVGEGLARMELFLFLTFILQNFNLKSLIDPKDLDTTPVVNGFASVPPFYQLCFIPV

SMILES | GI50 (HCT-116) | GI50 (A549) | GI50 (Hs-578T) | further results
CCN(CC)C(=O)C[C@H]1C(=O)Nc2cc(NC(=O)c3cc(OC)c(OC)c(OC)c3Br)c(Oc3cc(C)cc(C)c3)cc2C(=O)N1C | < 5 nM | < 5 nM | 5.4 nM | Drug metabolism [1]: Metabolite_Detected; Drug metabolism [2]: Metabolite_Detected; half-life at 100 µM [3]: 13.8 min; half-life (CYP3A4): 866 min; Stability [4]: Stable; Stability [5]: Stable; GI50 (MDA-MB-231 [6]): 3.39 nM; fraction unbound at 5 h, 5 µM [7]: < 0.02; Drug metabolism [8]: Metabolite_Detected; GI50 (MDA-MB-231 [9]): 53.2 nM; GI50 (MDA-MB-231 [10]): < 1 nM; half-life at 100 µM [11]: 11 min; half-life (CYP1A2): 11.4 min; half-life (CYP2C9): 16.6 min; GI50 (MDA-MB-231 [12]): 109 nM; half-life (CYP2C19): 11.7 min; fraction unbound at 5 h, 5 µM [13]: < 0.02; half-life (CYP2D6): 11.6 min
[2H]c1c(Oc2cc3c(cc2NC(=O)c2cc(OC)c(OC)c(OC)c2Cl)NC(=O)[C@H](CC(=O)N(CC)CC)NC3=O)c([2H])c(C([2H])([2H])[2H])c([2H])c1C([2H])([2H])[2H] | < 5 nM | 19.1 nM | 27.7 nM | 
[2H]C([2H])([2H])Oc1cc(C(=O)Nc2cc3c(cc2Oc2cc(C)cc(C)c2)C(=O)N[C@@H](CC(=O)N(C)O)C(=O)N3)c(Br)c(OC([2H])([2H])[2H])c1OC([2H])([2H])[2H] | 15.6 nM | < 5 nM | 8.6 nM | 
[2H]C([2H])([2H])C([2H])([2H])N(C(=O)C[C@@H]1NC(=O)c2cc(Oc3cc(C)cc(C)c3)c(NC(=O)c3cc(OC)c(OC)c(OC)c3Br)cc2NC1=O)C([2H])([2H])C([2H])([2H])[2H] | < 5 nM | < 5 nM | 16.1 nM | 
[2H]C([2H])([2H])C([2H])([2H])N(C(=O)C[C@H]1C(=O)Nc2cc(NC(=O)c3cc(OC)c(OC)c(OC)c3Br)c(Oc3cc(C)cc(C)c3)cc2C(=O)N1C)C([2H])([2H])C([2H])([2H])[2H] | 15.6 nM | < 5 nM | < 5 nM | 
[2H]C([2H])([2H])Oc1cc(C(=O)Nc2cc3c(cc2Oc2cc(C)cc(C)c2)C(=O)N[C@@H](CC(=O)N(C)OC)C(=O)N3)c(Br)c(OC([2H])([2H])[2H])c1OC([2H])([2H])[2H] | 7.8 nM | 4.9 nM | < 5 nM | GI50 (MDA-MB-231 [6]): < 1 nM; GI50 (MDA-MB-231 [9]): 90.3 nM; GI50 (MDA-MB-231 [10]): < 1 nM; GI50 (MDA-MB-231 [12]): 251 nM
[2H]C([2H])([2H])Oc1cc(C(=O)Nc2cc3c(cc2Oc2cc(C)cc(C)c2)C(=O)N(C)[C@@H](CC(=O)N(C)C)C(=O)N3)c(Br)c(OC([2H])([2H])[2H])c1OC([2H])([2H])[2H] | < 5 nM | < 5 nM | < 5 nM | 
[2H]C([2H])([2H])Oc1cc(C(=O)Nc2cc3c(cc2Oc2cc(C)cc(C)c2)C(=O)N[C@@H](CC(=O)N(C([2H])([2H])C([2H])([2H])[2H])C([2H])([2H])C([2H])([2H])[2H])C(=O)N3)c(Br)c(OC([2H])([2H])[2H])c1OC([2H])([2H])[2H] | < 5 nM | < 5 nM | < 5 nM | GI50 (MDA-MB-231 [6]): < 1 nM; GI50 (MDA-MB-231 [9]): 14 nM; GI50 (MDA-MB-231 [10]): < 1 nM; GI50 (MDA-MB-231 [12]): 64.1 nM
[2H]C([2H])([2H])Oc1cc(C(=O)Nc2cc3c(cc2Oc2cc(C)cc(C)c2)C(=O)N[C@@H](CC(=O)N(C([2H])([2H])[2H])C([2H])([2H])[2H])C(=O)N3)c(Br)c(OC([2H])([2H])[2H])c1OC([2H])([2H])[2H] | < 5 nM | 6.1 nM | < 5 nM | 
[2H]C([2H])([2H])c1cc(Oc2cc3c(cc2NC(=O)c2cc(OC)c(OC)c(OC)c2Cl)NC(=O)[C@H](CC(=O)N(CC)CC)NC3=O)cc(C([2H])([2H])[2H])c1 | < 5 nM | 11.6 nM | 30.1 nM | 
[2H]C([2H])([2H])Oc1c(OC)cc(C(=O)Nc2cc3c(cc2Oc2cc(C)cc(C)c2)C(=O)N[C@@H](CC(=O)N(CC)CC)C(=O)N3)c(Cl)c1OC | < 5 nM | 13.1 nM | 31.9 nM | 
[2H]C([2H])([2H])Oc1cc(C(=O)Nc2cc3c(cc2Oc2cc(C)cc(C)c2)C(=O)N(C)[C@@H](CC(=O)N(C([2H])([2H])C([2H])([2H])[2H])C([2H])([2H])C([2H])([2H])[2H])C(=O)N3)c(Br)c(OC([2H])([2H])[2H])c1OC([2H])([2H])[2H] | < 5 nM | < 5 nM | < 5 nM | 
[2H]C([2H])([2H])Oc1cc(C(=O)Nc2cc3c(cc2Oc2cc(C)cc(C)c2)C(=O)N(C)[C@@H](CC(=O)N(C([2H])([2H])[2H])C([2H])([2H])[2H])C(=O)N3)c(Br)c(OC([2H])([2H])[2H])c1OC([2H])([2H])[2H] | < 5 nM | < 5 nM | < 5 nM | 
[2H]C([2H])([2H])N1C(=O)c2cc(Oc3cc(C)cc(C)c3)c(NC(=O)c3cc(OC)c(OC)c(OC)c3Br)cc2NC(=O)[C@@H]1CC(=O)N(CC)CC | < 5 nM | < 5 nM | 20.9 nM | 
[2H]C([2H])([2H])N(C(=O)C[C@H]1C(=O)Nc2cc(NC(=O)c3cc(OC)c(OC)c(OC)c3Br)c(Oc3cc(C)cc(C)c3)cc2C(=O)N1C)C([2H])([2H])[2H] | < 5 nM | < 5 nM | < 5 nM | 
[2H]C([2H])([2H])Oc1cc(C(=O)Nc2cc3c(cc2Oc2cc(C)cc(C)c2)C(=O)N[C@@H](CC(=O)N(CC)CC)C(=O)N3)c(Br)c(OC([2H])([2H])[2H])c1OC([2H])([2H])[2H] | < 5 nM | < 5 nM | 8.1 nM | 
[2H]C([2H])([2H])N(C(=O)C[C@@H]1NC(=O)c2cc(Oc3cc(C)cc(C)c3)c(NC(=O)c3cc(OC)c(OC)c(OC)c3Br)cc2NC1=O)C([2H])([2H])[2H] | 7.1 nM | < 5 nM | < 5 nM | GI50 (MDA-MB-231 [6]): 9.43 nM; GI50 (MDA-MB-231 [9]): 22.5 nM; GI50 (MDA-MB-231 [10]): 9.33 nM; GI50 (MDA-MB-231 [12]): 9.96 nM
COc1cc(C(=O)Nc2cc3c(cc2Oc2cc(C)cc(C)c2)C(=O)N[C@@H](CC(=O)N(C)C)C(=O)N3)c(Br)c(OC)c1OC | < 5 nM | < 5 nM | < 5 nM | 
[2H]C([2H])([2H])Oc1cc(C(=O)Nc2cc3c(cc2Oc2cc(C)cc(C)c2)C(=O)N[C@@H](CC(=O)N(CC)CC)C(=O)N3)c(Cl)c(OC([2H])([2H])[2H])c1OC([2H])([2H])[2H] | 5.4 nM | 14.9 nM | 39.7 nM | 
[2H]c1c(C)c([2H])c(Oc2cc3c(cc2NC(=O)c2cc(OC)c(OC)c(OC)c2Cl)NC(=O)[C@H](CC(=O)N(CC)CC)NC3=O)c([2H])c1C | 124 nM | 207 nM | 292 nM | 
[2H]C([2H])([2H])Oc1cc(C(=O)Nc2cc3c(cc2Oc2cc(C)cc(C)c2)C(=O)N[C@@H](CC(=O)N(C)C)C(=O)N3)c(Br)c(OC([2H])([2H])[2H])c1OC([2H])([2H])[2H] | < 5 nM | < 5 nM | < 5 nM | GI50 (MDA-MB-231 [6]): 0.79 nM; GI50 (MDA-MB-231 [9]): 0.75 nM; GI50 (MDA-MB-231 [10]): 0.23 nM; GI50 (MDA-MB-231 [12]): 25.3 nM
COc1cc(C(=O)Nc2cc3c(cc2Oc2cc(C)cc(C)c2)C(=O)N(C)[C@@H](CC(=O)N(C)C)C(=O)N3)c(Br)c(OC)c1OC | < 5 nM | < 5 nM | < 5 nM | 
[2H]C([2H])([2H])Oc1cc(C(=O)Nc2cc3c(cc2Oc2cc(C)cc(C)c2)C(=O)N[C@@H](CC(=O)N(C([2H])([2H])C([2H])([2H])[2H])C([2H])([2H])C([2H])([2H])[2H])C(=O)N3)c(Cl)c(OC([2H])([2H])[2H])c1OC([2H])([2H])[2H] | < 5 nM | 11.7 nM | 51.5 nM | 
